From ChEMBL document CHEMBL2417394, “Exquisite selectivity for human toll-like receptor 8 in substituted furo[2,3-c]quinolines” (J Med Chem, 2013)
Calls of active or inactive are those of the source. No cut-off for these calls is given here.

Assays:
[1] = target: Toll-like receptor 2 (Homo sapiens) (UniProt O60603); experiment: Modulation of human TLR2 expressed in HEK293 cells co-transfected with MD2 and sAP assessed as induction of NF-kappaB activity by reporter gene assay; assay type: cell-based
[2] = target: T1, Toll-like receptor 7 (Homo sapiens) (UniProt Q9NYK1); experiment: Modulation of human TLR7 expressed in HEK293 cells co-transfected with MD2 and sAP assessed as induction of NF-kappaB activity by reporter gene assay; assay type: cell-based
T1 sequence (whole entry): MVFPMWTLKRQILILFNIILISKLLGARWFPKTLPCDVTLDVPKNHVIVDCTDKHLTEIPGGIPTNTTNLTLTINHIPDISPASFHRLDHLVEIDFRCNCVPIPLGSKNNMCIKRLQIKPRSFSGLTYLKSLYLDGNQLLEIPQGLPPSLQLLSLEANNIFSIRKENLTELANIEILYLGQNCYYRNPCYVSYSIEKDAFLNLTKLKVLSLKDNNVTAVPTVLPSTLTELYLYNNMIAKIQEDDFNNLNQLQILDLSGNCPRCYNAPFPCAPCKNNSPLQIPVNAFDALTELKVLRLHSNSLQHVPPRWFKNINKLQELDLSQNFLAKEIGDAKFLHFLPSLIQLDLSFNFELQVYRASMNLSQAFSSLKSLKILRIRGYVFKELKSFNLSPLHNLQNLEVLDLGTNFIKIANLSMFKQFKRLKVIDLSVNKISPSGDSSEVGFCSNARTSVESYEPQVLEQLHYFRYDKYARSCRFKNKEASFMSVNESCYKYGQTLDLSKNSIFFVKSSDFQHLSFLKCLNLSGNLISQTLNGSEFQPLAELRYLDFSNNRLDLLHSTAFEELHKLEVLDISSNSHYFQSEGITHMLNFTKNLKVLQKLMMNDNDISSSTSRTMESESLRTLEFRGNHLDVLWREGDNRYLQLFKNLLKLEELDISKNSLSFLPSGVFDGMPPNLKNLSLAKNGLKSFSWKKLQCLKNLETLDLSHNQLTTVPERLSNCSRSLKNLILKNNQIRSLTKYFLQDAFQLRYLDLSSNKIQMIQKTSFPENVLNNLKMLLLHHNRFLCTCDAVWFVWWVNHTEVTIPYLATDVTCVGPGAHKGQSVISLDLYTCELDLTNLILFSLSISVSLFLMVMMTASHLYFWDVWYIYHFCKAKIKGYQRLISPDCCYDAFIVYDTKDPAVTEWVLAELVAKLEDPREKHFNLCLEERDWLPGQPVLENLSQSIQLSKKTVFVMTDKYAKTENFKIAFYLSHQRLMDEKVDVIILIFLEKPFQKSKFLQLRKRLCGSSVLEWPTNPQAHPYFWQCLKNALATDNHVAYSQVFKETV

[3] = target: Toll-like receptor 4 (Homo sapiens) (UniProt O00206); experiment: Modulation of human TLR4 expressed in HEK293 cells co-transfected with MD2 and sAP assessed as induction of NF-kappaB activity by reporter gene assay; assay type: cell-based
[4] = target: Toll-like receptor 5 (Homo sapiens) (UniProt O60602); experiment: Modulation of human TLR5 expressed in HEK293 cells co-transfected with MD2 and sAP assessed as induction of NF-kappaB activity by reporter gene assay; assay type: cell-based
[5] = target: T1, Toll-like receptor 7 (Homo sapiens); experiment: Antagonist activity at human TLR7 expressed in HEK293 cells co-transfected with MD2 and sAP assessed as inhibition of NF-kappaB activity by reporter gene assay; assay type: cell-based
[6] = target: Toll-like receptor 3 (Homo sapiens) (UniProt O15455); experiment: Antagonist activity at human TLR3 expressed in HEK293 cells co-transfected with MD2 and sAP assessed as inhibition of NF-kappaB activity by reporter gene assay; assay type: cell-based
[7] = target: Toll-like receptor 4 (Homo sapiens) (UniProt O00206); experiment: Antagonist activity at human TLR4 expressed in HEK293 cells co-transfected with MD2 and sAP assessed as inhibition of NF-kappaB activity by reporter gene assay; assay type: cell-based
[8] = target: T2, Nucleotide-binding oligomerization domain-containing protein 1 (Homo sapiens) (UniProt Q9Y239); experiment: Antagonist activity at NOD1 (unknown origin)
T2 sequence (whole entry): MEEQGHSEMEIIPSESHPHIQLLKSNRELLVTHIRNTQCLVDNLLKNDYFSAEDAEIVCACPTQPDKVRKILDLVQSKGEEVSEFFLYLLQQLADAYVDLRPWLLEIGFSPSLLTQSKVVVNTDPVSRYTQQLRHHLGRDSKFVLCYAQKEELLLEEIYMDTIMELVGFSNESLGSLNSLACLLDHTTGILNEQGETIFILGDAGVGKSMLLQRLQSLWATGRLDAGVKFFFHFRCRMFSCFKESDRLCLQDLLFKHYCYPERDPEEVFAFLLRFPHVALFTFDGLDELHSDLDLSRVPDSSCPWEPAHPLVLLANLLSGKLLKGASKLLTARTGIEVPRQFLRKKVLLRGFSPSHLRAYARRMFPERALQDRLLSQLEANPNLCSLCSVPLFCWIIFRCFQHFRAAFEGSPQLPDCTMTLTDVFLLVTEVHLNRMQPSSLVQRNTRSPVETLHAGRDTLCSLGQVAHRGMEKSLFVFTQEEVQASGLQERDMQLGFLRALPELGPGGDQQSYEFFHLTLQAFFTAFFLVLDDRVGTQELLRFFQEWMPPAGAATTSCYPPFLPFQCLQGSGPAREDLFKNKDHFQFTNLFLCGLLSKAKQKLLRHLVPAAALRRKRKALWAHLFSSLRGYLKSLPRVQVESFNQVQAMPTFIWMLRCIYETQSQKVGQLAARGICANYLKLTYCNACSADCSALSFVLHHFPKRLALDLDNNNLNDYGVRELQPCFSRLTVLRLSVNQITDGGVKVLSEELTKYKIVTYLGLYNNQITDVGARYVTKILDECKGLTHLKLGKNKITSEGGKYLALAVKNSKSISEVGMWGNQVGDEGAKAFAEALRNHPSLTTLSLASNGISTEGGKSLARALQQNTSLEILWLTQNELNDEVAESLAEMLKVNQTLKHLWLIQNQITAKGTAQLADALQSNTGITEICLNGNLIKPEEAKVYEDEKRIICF

Chain of Toll-like receptor 4 (Homo sapiens) (O00206 whole entry, the tested form may be a part): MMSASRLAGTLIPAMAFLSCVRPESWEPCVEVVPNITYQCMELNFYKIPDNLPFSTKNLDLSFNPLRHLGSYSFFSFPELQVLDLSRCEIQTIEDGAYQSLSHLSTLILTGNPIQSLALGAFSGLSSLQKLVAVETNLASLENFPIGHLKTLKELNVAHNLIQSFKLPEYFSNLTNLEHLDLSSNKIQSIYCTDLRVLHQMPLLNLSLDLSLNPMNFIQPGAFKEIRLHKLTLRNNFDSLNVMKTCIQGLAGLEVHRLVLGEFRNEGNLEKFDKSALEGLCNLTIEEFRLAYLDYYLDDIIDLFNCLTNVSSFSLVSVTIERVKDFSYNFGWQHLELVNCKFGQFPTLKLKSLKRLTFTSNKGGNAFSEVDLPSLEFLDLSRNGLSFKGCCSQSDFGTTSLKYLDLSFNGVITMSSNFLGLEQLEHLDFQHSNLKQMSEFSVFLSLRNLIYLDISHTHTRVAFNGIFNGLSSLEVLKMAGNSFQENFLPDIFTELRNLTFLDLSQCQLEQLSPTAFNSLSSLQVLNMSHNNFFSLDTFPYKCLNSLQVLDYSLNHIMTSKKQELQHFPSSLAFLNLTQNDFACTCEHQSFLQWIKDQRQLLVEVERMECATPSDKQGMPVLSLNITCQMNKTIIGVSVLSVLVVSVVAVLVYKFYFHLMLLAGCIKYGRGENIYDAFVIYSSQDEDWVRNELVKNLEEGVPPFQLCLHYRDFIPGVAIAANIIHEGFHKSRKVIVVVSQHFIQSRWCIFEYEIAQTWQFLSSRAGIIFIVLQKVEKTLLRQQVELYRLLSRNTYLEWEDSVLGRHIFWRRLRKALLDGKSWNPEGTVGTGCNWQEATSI
Chain of Toll-like receptor 3 (Homo sapiens) (O15455 whole entry): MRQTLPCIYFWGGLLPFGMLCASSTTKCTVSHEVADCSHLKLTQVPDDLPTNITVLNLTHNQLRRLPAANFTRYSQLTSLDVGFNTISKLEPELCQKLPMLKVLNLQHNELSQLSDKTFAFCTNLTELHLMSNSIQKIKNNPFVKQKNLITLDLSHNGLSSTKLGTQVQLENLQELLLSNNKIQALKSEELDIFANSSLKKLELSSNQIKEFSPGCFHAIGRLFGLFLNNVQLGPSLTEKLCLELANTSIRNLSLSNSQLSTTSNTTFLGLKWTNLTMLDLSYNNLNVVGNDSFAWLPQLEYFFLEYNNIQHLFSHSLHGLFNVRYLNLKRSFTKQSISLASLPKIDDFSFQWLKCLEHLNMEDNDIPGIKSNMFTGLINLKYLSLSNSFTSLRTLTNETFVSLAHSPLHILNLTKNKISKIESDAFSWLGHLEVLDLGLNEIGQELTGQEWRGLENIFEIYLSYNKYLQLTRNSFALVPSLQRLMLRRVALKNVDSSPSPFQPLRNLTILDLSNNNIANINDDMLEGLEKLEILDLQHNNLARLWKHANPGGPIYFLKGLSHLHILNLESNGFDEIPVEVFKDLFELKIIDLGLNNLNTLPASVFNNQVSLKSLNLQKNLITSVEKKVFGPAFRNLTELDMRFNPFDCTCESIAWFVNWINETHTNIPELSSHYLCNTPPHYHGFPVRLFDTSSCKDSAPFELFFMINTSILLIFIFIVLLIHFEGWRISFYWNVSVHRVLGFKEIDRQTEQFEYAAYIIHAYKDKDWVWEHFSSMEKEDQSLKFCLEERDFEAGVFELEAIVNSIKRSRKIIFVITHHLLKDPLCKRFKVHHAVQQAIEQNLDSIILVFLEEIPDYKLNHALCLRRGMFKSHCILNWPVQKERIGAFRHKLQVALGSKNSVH
Chain of Toll-like receptor 2 (Homo sapiens) (O60603 whole entry): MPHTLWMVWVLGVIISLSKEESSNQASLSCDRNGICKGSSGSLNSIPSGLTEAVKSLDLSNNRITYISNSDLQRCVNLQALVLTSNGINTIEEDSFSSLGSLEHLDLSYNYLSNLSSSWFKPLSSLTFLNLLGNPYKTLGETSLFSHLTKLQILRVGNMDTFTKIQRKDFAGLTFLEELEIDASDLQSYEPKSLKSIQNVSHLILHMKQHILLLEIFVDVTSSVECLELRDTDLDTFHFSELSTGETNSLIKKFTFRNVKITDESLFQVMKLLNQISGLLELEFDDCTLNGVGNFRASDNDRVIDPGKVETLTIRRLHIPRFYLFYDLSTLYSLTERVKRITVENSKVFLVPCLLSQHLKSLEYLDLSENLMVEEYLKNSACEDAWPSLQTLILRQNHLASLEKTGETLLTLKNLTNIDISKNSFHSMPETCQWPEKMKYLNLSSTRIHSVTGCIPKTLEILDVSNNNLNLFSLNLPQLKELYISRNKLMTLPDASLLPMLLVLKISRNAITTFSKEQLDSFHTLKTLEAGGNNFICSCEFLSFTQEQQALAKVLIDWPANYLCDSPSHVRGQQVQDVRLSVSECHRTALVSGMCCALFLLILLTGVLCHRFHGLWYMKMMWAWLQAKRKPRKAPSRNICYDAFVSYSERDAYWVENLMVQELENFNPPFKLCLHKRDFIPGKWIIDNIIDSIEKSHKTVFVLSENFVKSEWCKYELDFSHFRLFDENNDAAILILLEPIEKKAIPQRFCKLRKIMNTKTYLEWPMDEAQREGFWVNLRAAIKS
Chain of Toll-like receptor 5 (Homo sapiens) (O60602 whole entry): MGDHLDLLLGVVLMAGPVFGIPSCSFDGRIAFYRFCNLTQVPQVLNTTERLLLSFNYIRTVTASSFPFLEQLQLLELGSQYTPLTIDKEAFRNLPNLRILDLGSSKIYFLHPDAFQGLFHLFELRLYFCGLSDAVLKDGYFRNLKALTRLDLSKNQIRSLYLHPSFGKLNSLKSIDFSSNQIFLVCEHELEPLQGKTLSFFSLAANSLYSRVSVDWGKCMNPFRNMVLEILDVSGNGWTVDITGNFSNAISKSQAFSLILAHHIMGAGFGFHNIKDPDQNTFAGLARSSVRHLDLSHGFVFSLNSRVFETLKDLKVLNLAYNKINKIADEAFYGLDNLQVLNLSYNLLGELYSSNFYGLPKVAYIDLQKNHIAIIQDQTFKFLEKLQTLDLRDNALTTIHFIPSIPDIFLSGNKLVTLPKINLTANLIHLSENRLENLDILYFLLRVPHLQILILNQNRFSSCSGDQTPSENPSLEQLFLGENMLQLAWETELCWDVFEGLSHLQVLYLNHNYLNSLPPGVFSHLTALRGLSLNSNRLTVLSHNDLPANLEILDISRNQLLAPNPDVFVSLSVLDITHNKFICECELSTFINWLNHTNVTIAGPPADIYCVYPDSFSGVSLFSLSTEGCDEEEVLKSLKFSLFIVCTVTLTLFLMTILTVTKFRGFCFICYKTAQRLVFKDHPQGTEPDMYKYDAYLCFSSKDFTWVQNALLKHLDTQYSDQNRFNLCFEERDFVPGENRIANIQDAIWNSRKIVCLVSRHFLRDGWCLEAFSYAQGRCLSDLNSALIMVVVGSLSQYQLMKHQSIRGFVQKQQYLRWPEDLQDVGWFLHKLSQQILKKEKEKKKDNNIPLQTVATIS

SMILES | inhibition [5] | inhibition [6] | inhibition [7] | inhibition [8] | Activity [1] | Activity [2] | Activity [3] | Activity [4]
NCCc1cc2c(o1)c(N)nc1ccccc12 | – | – | – | – | Active | Active | Active | Active
CCCc1cc2c(N)nc3ccccc3c2o1 | inactive | inactive | inactive | inactive | – | – | – | –
Nc1nc2ccccc2c2oc(-c3ccccc3)cc12 | inactive | inactive | inactive | inactive | – | – | – | –

More lines, main results first:

inhibition [5] | inhibition [6] | inhibition [7] | inhibition [8] | SMILES | Activity [1] | Activity [2] | Activity [3] | Activity [4]
inactive | inactive | inactive | inactive | CCCCc1cc2c(nc(N)c3ccccc32)o1 | inactive | inactive | inactive | inactive
inactive | inactive | inactive | inactive | CCCCc1cc2c(N)nc3ccccc3c2o1 | – | – | – | –
